Experimental data published in patent US20240246941A1, “SUBSTITUTED 4-(3-AMINOPROP-1-YL)AMINOQUINOLINE ANALOGS AS MODULATORS OF MELANOMA-ASSOCIATED ANTIGEN 11 UBIQUITIN LIGASE” (ST. JUDE CHILDREN'S RESEARCH HOSPITAL, INC., priority 2020, published 2024).

Molecular target: interaction between GST-MAGEA11 MHD and FAM-PCF11_4 peptide (MAGE-A11:PCF11) (Homo sapiens (Human), UniProt P43364)
Assay: TR-FRET dose response competition assay for disruption of MAGE-A11:PCF11 binding
Details: Dose response TR-FRET screening of nine scaffold groups against MAGE-A11:PCF11; read-out: consensus IC50
In short: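 Competition TR-FRET at room temperature in 50 mM Tris pH 7.5, 20 mM MgCl2, 0.1 mg/ml BSA, 1 mM DTT: final 5 nM GST-MAGEA11 MHD, 5 nM Tb-anti-GST, 200 nM FAM-PCF11_4, 90 min. Ratio 520/490 nm converted to % inhibition; IC50 from sigmoidal fit.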

interaction between GST-MAGEA11 MHD and FAM-PCF11_4 peptide (MAGE-A11:PCF11), sequence (P43364 218-429): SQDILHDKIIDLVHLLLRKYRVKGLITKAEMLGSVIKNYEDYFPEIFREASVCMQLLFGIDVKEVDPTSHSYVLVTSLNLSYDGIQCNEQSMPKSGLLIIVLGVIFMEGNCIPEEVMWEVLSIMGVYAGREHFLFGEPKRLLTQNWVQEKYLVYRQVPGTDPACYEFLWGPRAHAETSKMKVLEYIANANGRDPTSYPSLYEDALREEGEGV

SMILES | IC50 [µM]
CCCN1C(=O)c2ccccc2NC1c1ccc(C)cc1 (centres unmarked) [SJ000288423-2] | 69.9
CCCN1C(=O)c2ccccc2NC1c1ccc(Cl)cc1Cl (centres unmarked) [SJ000288424-2] | 69.9
CCCN1C(=O)c2ccccc2NC1c1ccc(OC)c(COc2ccc([N+](=O)[O-])cc2)c1 (centres unmarked) [SJ000288430-1] | 69.9
CCOc1cc(C2Nc3ccccc3C(=O)N2Cc2ccccc2)ccc1O (centres unmarked) [SJ000288432-1] | 69.9
COc1ccc(C2Nc3ccccc3C(=O)N2Cc2ccccc2)cc1Cn1cc([N+](=O)[O-])cn1 (centres unmarked) [SJ000288433-1] | 69.9
CCCN1C(=O)c2ccccc2NC1c1ccc(OC)c(CSc2ccccn2)c1 (centres unmarked) [SJ000288444-1] | 69.9
CCCN1C(=O)c2ccccc2NC1c1ccccc1F (centres unmarked) [SJ000288611-1] | 69.9
O=C1c2ccccc2NC(c2ccc3c(c2)OCO3)N1Cc1ccccc1 (centres unmarked) [SJ000288627-1] | 69.9
COc1ccc(C2Nc3ccccc3C(=O)N2Cc2ccccc2)cc1Cn1nc(C)c(Cl)c1C (centres unmarked) [SJ000288637-1] | 69.9
CCCN1C(=O)c2ccccc2NC1c1ccc2c(c1)OCO2 (centres unmarked) [SJ000288667-1] | 69.9
CC(=O)N(C)C1=C(Cl)C(=O)c2ccccc2C1=O [SJ000290718-2] | 69.9
NC1=C(N2CCCCC2)C(=O)c2ccccc2C1=O [SJ000294373-2] | 20.1
CCCN1C(=O)c2ccccc2NC1c1c(Cl)cccc1Cl (centres unmarked) [SJ000295321-1] | 69.9
COc1ccc(C2Nc3ccccc3C(=O)N2Cc2ccccc2)cc1COc1ccccc1F (centres unmarked) [SJ000295328-2] | 69.9
COc1ccc(C2Nc3ccccc3C(=O)N2Cc2ccccc2)cc1CN1C(=O)c2ccccc2C1=O (centres unmarked) [SJ000295698-1] | 69.9
COc1cccc(OCc2cc(C3Nc4ccccc4C(=O)N3Cc3ccccc3)ccc2OC)c1 (centres unmarked) [SJ000295704-1] | 69.9
CCCN1C(=O)c2ccccc2NC1c1ccc(O)c(OC)c1 (centres unmarked) [SJ000295722-1] | 69.9
CCCN1C(=O)c2ccccc2NC1c1ccc(OC)c(COc2ccccc2F)c1 (centres unmarked) [SJ000295736-1] | 69.9
CCCN1C(=O)c2ccccc2NC1c1ccc(OC)c(COc2ccc([N+](=O)[O-])c(C)c2)c1 (centres unmarked) [SJ000295745-1] | 69.9
CCCN1C(=O)c2ccccc2NC1c1ccc(Cl)c(Cl)c1 (centres unmarked) [SJ000296071-1] | 69.9
Cc1nc2cc(-c3ccccc3)sc2c(=O)n1N [SJ000296471-1] | 69.9
COc1ccc(-c2cc3nc[nH]c(=O)c3s2)cc1 [SJ000296726-1] | 69.9
CC(=O)N(C1=C(Cl)C(=O)c2ccccc2C1=O)c1ccc(Cl)cc1 [SJ000296883-2] | 69.9
O=C1C(Cl)=C(Nc2ccc(Cl)cc2)C(=O)c2ccccc21 [SJ000297073-1] | 69.9
CCn1c2ccccc2c2cc(CN3CCN(C(=O)c4ccc(OC)c(OC)c4)CC3)ccc21 [SJ000298589-1] | 69.9
COC(=O)c1ccc(NC2=C(Cl)C(=O)c3ccccc3C2=O)cc1 [SJ000299646-1] | 69.9

SMILES | IC50 [µM]
CC1CCCC(C)C1NC1=C(Cl)C(=O)c2ccccc2C1=O (centres unmarked) [SJ000299694-1] | 69.9
CC(=O)N(C1=C(Cl)C(=O)c2ccccc2C1=O)c1ccc(Br)cc1 [SJ000299699-2] | 69.9
O=C1C(Cl)=C(Nc2ccc(Nc3ccccc3)cc2)C(=O)c2ccccc21 [SJ000299708-1] | 69.9
NC1=C(Nc2cccc3ccccc23)C(=O)c2ccccc2C1=O [SJ000300361-1] | 69.9
Cn1c2ccccc2c2cc(C(=O)N3CCc4nncn4CC3)ccc21 [SJ000307416-1] | 69.9
CCn1c2ccccc2c2cc(CN3CCc4nnc(CNS(=O)(=O)C(C)C)n4CC3)ccc21 [SJ000307753-1] | 69.9
CCn1c2ccccc2c2cc(CN3CCc4nnc(C(C)NC(=O)CCOC)n4CC3)ccc21 (centres unmarked) [SJ000307915-1] | 69.9
CCn1c2ccccc2c2cc(CN3CCc4nnc(CNC(=O)c5ccccc5)n4CC3)ccc21 [SJ000307948-1] | 69.9
Cn1c2ccccc2c2cc(C(=O)NCC3CCC4(CCN(Cc5ccccn5)CC4)O3)ccc21 (centres unmarked) [SJ000308489-1] | 69.9
COc1ccccc1CNCCCNc1ccnc2cc(Cl)ccc12 [SJ000311185-1] | 69.9
Oc1ccc(Br)cc1CNCCCNc1ccnc2cc(Cl)ccc12 [SJ000311186-1] | 69.9
Oc1ccccc1CNCCCNc1ccnc2cc(Cl)ccc12 [SJ000311187-1] | 69.9
COc1ccc(O)c(C(C)NCCCNc2ccnc3cc(Cl)ccc23)c1 (centres unmarked) [SJ000311188-1] | 69.9
O=[N+]([O-])c1ccc(CNCCCNc2ccnc3cc(Cl)ccc23)cc1O [SJ000311191-1] | 69.9
COc1ccc(CNCCCNc2ccnc3cc(Cl)ccc23)cc1O [SJ000311192-1] | 69.9
CC(C)(C)c1ccc(O)c(CNCCCNc2ccnc3cc(Cl)ccc23)c1 [SJ000311193-1] | 30.4
Oc1ccc(Br)c(CNCCCNc2ccnc3cc(Cl)ccc23)c1 [SJ000311194-1] | 69.9
CCCN(CCCCNc1ccnc2cc(Cl)ccc12)Cc1cc(Br)ccc1O [SJ000311196-1] | 69.9
COc1cccc(CNCCCNc2ccnc3cc(Oc4ccccc4)ccc23)c1O [SJ000311207-1] | 69.9
c1ccc(Oc2ccc3c(NCCCNCc4cccc5c4OCO5)ccnc3c2)cc1 [SJ000311208-1] | 30.1
COc1ccc(F)cc1CNCCCNc1ccnc2cc(Oc3ccccc3)ccc12 [SJ000311209-1] | 29
COc1ccccc1Oc1ccc2c(NCCCNCc3cccc(OC)c3O)ccnc2c1 [SJ000311211-1] | 69.9
COc1ccccc1Oc1ccc2c(NCCCNCc3cccc4c3OCO4)ccnc2c1 [SJ000311212-1] | 69.9
COc1ccc(F)cc1CNCCCNc1ccnc2cc(Oc3ccccc3OC)ccc12 [SJ000311213-1] | 69.9
COc1cccc(Oc2ccc3c(NCCCNCc4cccc(OC)c4O)ccnc3c2)c1 [SJ000311215-1] | 69.9

Same assay, conditions: Table 8, representative compounds; read-out: TR-FRET IC50

SMILES | IC50 [µM]
COc1ccccc1CNCCCNc1ccnc2cc(Cl)ccc12 [SJ000311185] | 69.9
Oc1ccc(Br)cc1CNCCCNc1ccnc2cc(Cl)ccc12 [SJ000311186] | 69.9
Oc1ccccc1CNCCCNc1ccnc2cc(Cl)ccc12 [SJ000311187] | 69.9
COc1ccc(O)c(C(C)NCCCNC2C=CN=C3C=C(Cl)C=CC32)c1 (centres unmarked) [SJ000311188] | 69.9
O=[N+]([O-])c1ccc(CNCCCNc2ccnc3cc(Cl)ccc23)cc1O [SJ000311191] | 69.9
COc1ccc(CNCCCNc2ccnc3cc(Cl)ccc23)cc1O [SJ000311192] | 69.9
CC(C)(C)c1ccc(O)c(CNCCCNc2ccnc3cc(Cl)ccc23)c1 [SJ000311193] | 30.4
Oc1ccc(Br)c(CNCCCNc2ccnc3cc(Cl)ccc23)c1 [SJ000311194] | 69.9
COc1cccc(CNCCCNc2ccnc3cc(Oc4ccccc4)ccc23)c1O [SJ000311207] | 69.9
c1ccc(Oc2ccc3c(NCCCNCc4cccc5c4OCO5)ccnc3c2)cc1 [SJ000311208] | 30.1
COc1ccc(F)cc1CNCCCNc1ccnc2cc(Oc3ccccc3)ccc12 [SJ000311209] | 29
COc1ccccc1Oc1ccc2c(NCCCNCc3cccc(OC)c3O)ccnc2c1 [SJ000311211] | 69.9
COc1ccccc1Oc1ccc2c(NCCCNCc3cccc4c3OCO4)ccnc2c1 [SJ000311212] | 69.9
COc1ccc(F)cc1CNCCCNc1ccnc2cc(Oc3ccccc3OC)ccc12 [SJ000311213] | 69.9
